From patent US9422363B2, “Synthetic apolipoprotein E mimicking polypeptides and methods of use” (UAB RESEARCH FOUNDATION, priority 2007, dated 2016)

Assays:
[1] = system: 1% cholesterol fed NZW-rabbits; assay: Plasma turbidity and aortic atherosclerosis (en face Oil Red O) in 1% cholesterol fed NZW rabbits; assay type: in vivo, rabbit
Description: In another set of experiments it was noted that Ac-hE18A-NH2 clears the plasma turbidity in 1% cholesterol fed NZW-rabbits. 3 mg/kg of peptide was administered intravenously/week. The rabbits were sacrificed after 51 days from the start of diet. Aortas were harvested and en face analysis was done on Oil Red O stained tissue samples. […] This was associated with decrease in atherogenic lipoproteins and inhibition of atherosclerosis at day 51.

WHHL rabbits [2] = assay: Ac-hE18A-NH2 in WHHL rabbits: plasma PON, lipid hydroperoxides, cholesterol, endothelial function; assay type: in vivo, rabbit; conditions: plasma of WHHL rabbits; p<0.05; FIG. 1
Description: These rabbits have defective LDL receptors and therefore have increased atherogenic lipoproteins (mainly LDL). […] This was associated with improved aortic endothelial function. This improvement in endothelial function was mediated in part by increase in PON activity with associated decrease in plasma lipid hydroperoxide (FIG. 1). […] PON is an anti-oxidant enzyme associated with HDL and is responsible for scavenging LOOH in plasma. The lipid lowering effects of Ac-hE18A-NH2 in 1% cholesterol fed NZW-rabbits have also been shown. These animals have elevated cholesterol that are rich in VLDL type of particles.

WHHL rabbits [3] = conditions: single administration; cited from earlier work
ZDF (fa/fa) rats = assay: Onset and progression of DM-2 in male ZDF (fa/fa) rats: fasting plasma glucose, insulin, adiponectin; assay type: in vivo, rat
Description: This example outlies studies carried out for the evaluation of the effects of these peptides in the prevention of onset and progression of DM-2. […] Baseline fasting plasma was collected prior to peptide administration. Biweekly injections (6 for Ac-hE18A-NH2 group and 5 for L-4F group were administered before day 18). From day 18-day 33, no additional peptide/vehicle injection were performed. […] (B) Corresponding insulin levels are depicted in the control and Ac-hE18A-NH2 group only. Control animals become relatively insulin resistant at day 18 as depicted by hyperinsulinemia and hyperglycemia. […] Data are expressed as Mean±SEM; *p<0.05.
Relatively infrequent injections (biweekly) of the peptides as compared to vehicle were able to improve glucose homeostasis in the ZDF rats. Form the studies it was determined that adiponectin levels in the peptide treated animals were much higher than in controls at day 33 (5.7±1 vs. […], p<0.05). […] Adiponectin also prevents the production and action of pro-inflammatory TNF-α and IL-6 and induces anti-inflammatory cytokine IL-10 and IL-1 receptor antagonist. A summary of the potential effects of the peptides on liver, pancreas, peripheral tissue, blood and blood vessel are depicted in FIG. 5.

[4] = system: 1% cholesterol fed NZW-rabbits; assay: Plasma cholesterol in high fat (1% cholesterol) diet rabbits; assay type: in vivo, rabbit; conditions: intravenously two times; end of 14 days (21 days after initiation of atherogenic diet); n=4; control about 2000 mg/dl
[5] = 1% cholesterol fed NZW rabbits, 3 mg/kg i.v./week, day 51
[6] = 5 mg/kg i.v. biweekly, day 18, versus control
[7] = day 33, no additional peptide after day 18

For “Ac-LRKLRKRLLRDWLKAFYDKVAEKLKEAF-NH2 [Ac-hE18A-NH2]”, the atherogenic lipoproteins [1, 5] was “decrease”, the “atherosclerosis (en face analysis of Oil Red O stained aortas)” value [1, 5] was “inhibits” and the plasma turbidity ([1]; 1% cholesterol fed NZW-rabbits, 3 mg/kg intravenously/week) was “clears”. For the same substance, the “HDL associated Paraoxonase (PON) activity” value (WHHL rabbits [2]) was “increase”, the “lipid hydroperoxides (LOOH)” value (WHHL rabbits [2]) was “decrease” and the LDL cholesterol (WHHL rabbits [3]) was “dramatic decrease”. The aortic endothelial function (WHHL rabbits [3]) was “improved”, the total cholesterol (WHHL rabbits [3]) was “dramatic decrease” and the fasting plasma glucose (ZDF (fa/fa) rats; 5 mg/kg i.v. biweekly until day 18, day 18 and day 33, versus control) was “only mild increase”. The plasma glucose levels (ZDF (fa/fa) rats; 5 mg/kg i.v. biweekly, day 18) was “normal”, the insulin resistance (ZDF (fa/fa) rats; [6]) was “much less” and the plasma insulin levels (ZDF (fa/fa) rats; [6]) was “lower”. The beta cell function (ZDF (fa/fa) rats; day 18 to day 33, no additional peptide) was “relatively preserved”, the plasma glucose (ZDF (fa/fa) rats; [7]) was “milder increase” and the plasma insulin (ZDF (fa/fa) rats; [7]) was “increase”. For the same substance, the plasma cholesterol levels [4] was ~1000 mg/dL.
